Measurements taken from patent publication US20240158391A1, “DERIVATIVES OF 4-(IMIDAZO[1,2-A]PYRIDIN-3-YL)-N-(PYRIDIN-3-YL) PYRIMIDIN-2- AMINE FOR TREATING PROLIFERATIVE DISEASES AND CONDITIONS” (AUCENTRA THERAPEUTICS PTY LTD, priority 2019, published 2024).

What was measured:
[1] = target: CDK1/CyclinB (Homo sapiens, UniProt P06493); assay: ADP Glo kinase assay, CDK1/CyclinB; assay type: biochemical; settings: for remaining activity at 1 µM: compound at 1 μM, read-out: Residual enzymatic activity (%) at 1 μM, CDK1 B
CDK1/CyclinB, sequence (P06493 whole entry, species assumed): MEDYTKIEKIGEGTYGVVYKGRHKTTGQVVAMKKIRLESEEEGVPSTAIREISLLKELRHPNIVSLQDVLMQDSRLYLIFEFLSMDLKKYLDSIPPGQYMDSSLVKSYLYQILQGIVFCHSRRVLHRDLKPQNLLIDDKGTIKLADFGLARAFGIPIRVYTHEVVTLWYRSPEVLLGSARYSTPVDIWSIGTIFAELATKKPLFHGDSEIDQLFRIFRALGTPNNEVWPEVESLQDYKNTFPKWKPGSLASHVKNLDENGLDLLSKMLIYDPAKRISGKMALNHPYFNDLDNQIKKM
CDK1/CyclinB, sequence (P14635 whole entry partner, species assumed): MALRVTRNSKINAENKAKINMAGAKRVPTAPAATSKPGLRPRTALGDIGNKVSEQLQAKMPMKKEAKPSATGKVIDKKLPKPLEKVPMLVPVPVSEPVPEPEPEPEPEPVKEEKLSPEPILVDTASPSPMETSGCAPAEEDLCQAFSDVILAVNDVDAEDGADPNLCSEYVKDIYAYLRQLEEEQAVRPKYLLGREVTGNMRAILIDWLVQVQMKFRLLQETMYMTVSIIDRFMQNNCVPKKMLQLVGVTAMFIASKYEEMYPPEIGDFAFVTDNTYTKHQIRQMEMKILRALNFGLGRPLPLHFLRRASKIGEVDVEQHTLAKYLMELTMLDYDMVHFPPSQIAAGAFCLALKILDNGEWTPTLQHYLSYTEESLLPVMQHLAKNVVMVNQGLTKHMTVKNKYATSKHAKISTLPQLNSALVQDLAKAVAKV
Description: (§1) Test compounds are used in 1:3 serial dilutions for 10 concentrations (from 10-0.0005 μM) in 0.5% DMSO. […] The kinase reactions are run for optimised time period at room temperature and then the reaction is stopped by adding 5 μL of ADP Glo reagent.

[2] = target: CDK6/CyclinD3 (Homo sapiens, UniProt Q00534); assay: ADP Glo kinase assay, CDK6/CyclinD3; assay type: biochemical; settings: compound at 1 μM, read-out: Residual enzymatic activity (%) at 1 μM, CDK6 D3
CDK6/CyclinD3, sequence (Q00534 whole entry, species assumed): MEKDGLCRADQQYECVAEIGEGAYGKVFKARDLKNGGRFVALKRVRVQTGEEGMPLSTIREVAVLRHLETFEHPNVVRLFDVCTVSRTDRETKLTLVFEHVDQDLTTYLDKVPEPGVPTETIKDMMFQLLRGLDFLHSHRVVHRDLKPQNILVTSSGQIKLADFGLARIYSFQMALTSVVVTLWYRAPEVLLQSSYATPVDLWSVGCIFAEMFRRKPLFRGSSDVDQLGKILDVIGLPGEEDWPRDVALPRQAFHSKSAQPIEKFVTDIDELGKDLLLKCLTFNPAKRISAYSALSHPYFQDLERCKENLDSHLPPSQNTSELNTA
CDK6/CyclinD3, sequence (P30281 whole entry partner, species assumed): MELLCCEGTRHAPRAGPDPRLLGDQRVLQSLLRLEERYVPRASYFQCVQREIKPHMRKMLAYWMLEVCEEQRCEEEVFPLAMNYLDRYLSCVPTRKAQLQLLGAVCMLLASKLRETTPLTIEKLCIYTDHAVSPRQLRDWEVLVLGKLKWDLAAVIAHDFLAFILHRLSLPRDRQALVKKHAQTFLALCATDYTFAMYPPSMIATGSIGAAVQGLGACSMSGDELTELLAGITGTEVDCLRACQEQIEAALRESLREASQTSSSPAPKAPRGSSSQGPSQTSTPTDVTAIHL
Description: as §1

[3] = tested on: MV-4-11; assay: Proliferation assay (resazurin, leukemia cell lines), MV-4-11; assay type: cell-based; settings: Homo sapiens, MV4-11, read-out: 72 h Growth inhibition GI50, MV-4-11 cells
From the text: The following compounds were used as comparators.

[4] = target: CDK2/CyclinA2 (Homo sapiens, UniProt P24941); assay: ADP Glo kinase assay, CDK2/CyclinA2; assay type: biochemical; settings: for remaining activity at 1 µM: compound at 1 μM, read-out: Residual enzymatic activity (%) at 1 μM, CDK2 A; for Ki: Km ATP, read-out: Enzymatic inhibition, Ki, CDK2 A
Description: as §1

[5] = target: CDK7/CyclinH/Mat1 (Homo sapiens, UniProt P50613); assay: ADP Glo kinase assay, CDK7/CyclinH/Mat1; assay type: biochemical; settings: compound at 1 μM, read-out: Residual enzymatic activity (%) at 1 μM, CDK7 H
CDK7/CyclinH/Mat1, sequence (P50613 whole entry, species assumed): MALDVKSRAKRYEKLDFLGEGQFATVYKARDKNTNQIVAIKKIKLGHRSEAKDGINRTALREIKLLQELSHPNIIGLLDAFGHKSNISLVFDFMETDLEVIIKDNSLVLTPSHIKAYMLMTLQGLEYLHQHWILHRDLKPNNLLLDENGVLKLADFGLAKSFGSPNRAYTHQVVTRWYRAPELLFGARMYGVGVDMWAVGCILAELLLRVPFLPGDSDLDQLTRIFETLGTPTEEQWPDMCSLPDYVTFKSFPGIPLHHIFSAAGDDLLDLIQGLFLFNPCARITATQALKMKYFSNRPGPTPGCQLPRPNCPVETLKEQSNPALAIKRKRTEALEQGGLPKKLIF
CDK7/CyclinH/Mat1, sequence (P51946 whole entry partner, species assumed): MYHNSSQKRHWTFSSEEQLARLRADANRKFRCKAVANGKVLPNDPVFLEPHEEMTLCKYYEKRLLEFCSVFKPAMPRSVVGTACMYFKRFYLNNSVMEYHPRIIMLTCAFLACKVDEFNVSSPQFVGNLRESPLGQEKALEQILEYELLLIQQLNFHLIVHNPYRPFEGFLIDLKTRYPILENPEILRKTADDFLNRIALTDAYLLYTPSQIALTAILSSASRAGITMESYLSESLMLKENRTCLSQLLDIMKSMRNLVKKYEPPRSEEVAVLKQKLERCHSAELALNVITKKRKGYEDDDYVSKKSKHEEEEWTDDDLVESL
CDK7/CyclinH/Mat1, sequence (P51948 whole entry partner, species assumed): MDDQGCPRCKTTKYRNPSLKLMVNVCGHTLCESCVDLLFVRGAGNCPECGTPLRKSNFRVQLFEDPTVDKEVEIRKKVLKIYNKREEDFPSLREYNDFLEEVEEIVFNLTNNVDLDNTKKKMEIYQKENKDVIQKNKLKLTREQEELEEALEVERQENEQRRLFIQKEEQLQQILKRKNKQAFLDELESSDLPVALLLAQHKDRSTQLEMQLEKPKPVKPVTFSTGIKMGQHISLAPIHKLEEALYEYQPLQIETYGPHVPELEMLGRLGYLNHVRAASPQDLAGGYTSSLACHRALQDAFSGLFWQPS
Description: as §1

[6] = target: T1, FLT3-ITD (Homo sapiens, UniProt P36888); assay: ADP Glo kinase assay, FLT3-ITD; assay type: biochemical; settings: for Ki: Km ATP 100 μM, read-out: Enzymatic inhibition, Ki, FLT3-ITD
T1 sequence (P36888 1-993): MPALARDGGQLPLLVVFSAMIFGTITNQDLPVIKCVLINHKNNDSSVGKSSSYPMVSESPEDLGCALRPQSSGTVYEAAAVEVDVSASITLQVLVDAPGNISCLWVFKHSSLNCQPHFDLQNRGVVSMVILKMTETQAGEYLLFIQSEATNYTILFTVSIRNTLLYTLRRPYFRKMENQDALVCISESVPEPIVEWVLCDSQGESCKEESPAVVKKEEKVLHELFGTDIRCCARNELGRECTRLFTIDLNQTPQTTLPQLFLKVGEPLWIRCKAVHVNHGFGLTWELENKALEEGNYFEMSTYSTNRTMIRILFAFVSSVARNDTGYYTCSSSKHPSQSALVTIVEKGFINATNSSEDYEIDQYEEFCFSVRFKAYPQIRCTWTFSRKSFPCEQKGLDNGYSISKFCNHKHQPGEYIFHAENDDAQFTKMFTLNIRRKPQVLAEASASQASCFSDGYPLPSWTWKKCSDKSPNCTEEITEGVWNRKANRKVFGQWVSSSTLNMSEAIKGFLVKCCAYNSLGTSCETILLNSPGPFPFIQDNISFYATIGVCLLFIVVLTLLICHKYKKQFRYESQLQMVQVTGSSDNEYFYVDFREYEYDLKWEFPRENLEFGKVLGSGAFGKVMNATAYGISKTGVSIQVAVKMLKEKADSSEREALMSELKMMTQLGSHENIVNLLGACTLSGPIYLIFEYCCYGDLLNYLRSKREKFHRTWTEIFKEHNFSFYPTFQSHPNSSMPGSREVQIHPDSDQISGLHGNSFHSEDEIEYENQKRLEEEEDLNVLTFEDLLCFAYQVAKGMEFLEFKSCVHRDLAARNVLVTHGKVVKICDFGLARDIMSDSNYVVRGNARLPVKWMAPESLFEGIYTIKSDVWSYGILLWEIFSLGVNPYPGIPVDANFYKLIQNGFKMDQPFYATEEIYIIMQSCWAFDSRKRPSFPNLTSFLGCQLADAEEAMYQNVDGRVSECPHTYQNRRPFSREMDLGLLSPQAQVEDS
Description: as §1

[7] = target: CDK9/CyclinT1 (Homo sapiens, UniProt P50750); assay: ADP Glo kinase assay, CDK9/CyclinT1; assay type: biochemical; settings: CDK9/CyclinT1; Km ATP; read-out: Enzymatic inhibition, Ki, CDK9 T1
CDK9/CyclinT1, sequence (P50750 whole entry, species assumed): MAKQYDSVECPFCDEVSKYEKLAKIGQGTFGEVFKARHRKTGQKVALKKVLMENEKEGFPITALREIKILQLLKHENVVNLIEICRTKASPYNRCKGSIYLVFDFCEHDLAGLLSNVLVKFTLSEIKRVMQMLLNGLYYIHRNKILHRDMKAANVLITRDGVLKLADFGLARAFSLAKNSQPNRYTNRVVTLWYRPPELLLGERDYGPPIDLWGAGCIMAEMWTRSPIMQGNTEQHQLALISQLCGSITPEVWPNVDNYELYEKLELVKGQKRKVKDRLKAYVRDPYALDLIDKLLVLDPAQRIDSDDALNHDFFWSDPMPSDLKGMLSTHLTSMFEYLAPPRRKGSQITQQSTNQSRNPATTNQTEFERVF
CDK9/CyclinT1, sequence (O60563 whole entry partner, species assumed): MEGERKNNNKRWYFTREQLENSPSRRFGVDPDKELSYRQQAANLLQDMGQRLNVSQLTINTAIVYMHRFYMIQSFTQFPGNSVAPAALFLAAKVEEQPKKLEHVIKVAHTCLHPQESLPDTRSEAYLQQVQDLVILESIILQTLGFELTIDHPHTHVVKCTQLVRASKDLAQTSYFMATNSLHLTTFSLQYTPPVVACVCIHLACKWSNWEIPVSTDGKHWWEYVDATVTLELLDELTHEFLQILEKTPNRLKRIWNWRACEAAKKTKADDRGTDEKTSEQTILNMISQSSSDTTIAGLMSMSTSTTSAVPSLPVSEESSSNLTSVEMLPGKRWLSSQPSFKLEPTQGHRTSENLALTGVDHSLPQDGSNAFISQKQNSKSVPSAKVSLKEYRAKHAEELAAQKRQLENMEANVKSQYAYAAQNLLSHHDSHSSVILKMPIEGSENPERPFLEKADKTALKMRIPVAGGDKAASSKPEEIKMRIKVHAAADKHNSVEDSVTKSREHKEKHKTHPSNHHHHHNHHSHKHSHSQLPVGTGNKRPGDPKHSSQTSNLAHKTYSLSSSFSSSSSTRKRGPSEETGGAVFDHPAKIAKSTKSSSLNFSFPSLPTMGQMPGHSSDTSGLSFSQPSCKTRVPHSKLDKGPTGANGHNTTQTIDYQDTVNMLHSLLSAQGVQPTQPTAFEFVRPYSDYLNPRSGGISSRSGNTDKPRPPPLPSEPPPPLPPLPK
Description: as §1

SMILES | remaining activity at 1 µM [1] [%] | remaining activity at 1 µM [2] [%] | GI50 [3] [nM] | remaining activity at 1 µM [4] [%] | remaining activity at 1 µM [5] [%] | Ki [6] [nM] | Ki [7] [nM] | Ki ([1]; Km ATP, read-out: Enzymatic inhibition, Ki, CDK1 B) [nM] | Ki [4] [nM] | Residual enzymatic activity (%) at 1 μM, FLT3-ITD ([6]; compound at 1 μM) [%]
O=C1NCCC12CCN(c1ccc(Nc3nccc(-c4cnc5ccc(-c6ccccc6)cn45)n3)cn1)CC2 [Compound 72, 8-(5-((4-(6-Phenylimidazo[1,2-a]pyridin-3-yl)pyrimidin-2-yl)amino)pyridin-2-yl)-2,8-diazaspiro[4.5]decan-1-one] | 75 | 73 | 5 | 64 | 59 | 55 | > 500 | – | – | –
CC(C)N1CCN(c2ccc(Nc3nccc(-c4cnc5ccc(-c6cncnc6)cn45)n3)cn2)CC1 [Compound 53, N-(6-(4-Isopropylpiperazin-1-yl)pyridin-3-yl)-4-(6-(pyrimidin-5-yl)imidazo[1,2-a]pyridin-3-yl)pyrimidin-2-amine] | 71 | 66 | 46 | 75 | 56 | 71 | 92 | – | – | –
CN1CCN(c2ccc(Nc3nccc(-c4cnc5ccc(-c6cnn(C(F)F)c6)cn45)n3)cn2)CC1 [Compound 70, 4-(6-(1-(Difluoromethyl)-1H-pyrazol-4-yl)imidazo[1,2-a]pyridin-3-yl)-N-(6-(4-methylpiperazin-1-yl)pyridin-3-yl)pyrimidin-2-amine] | 32 | 57 | 8 | 55 | 40 | 12 | 7 | – | – | –
COc1cc(F)cc(-c2ccc3ncc(-c4ccnc(Nc5ccc(N6CCN(C)CC6)nc5)n4)n3c2)c1 [Compound 64, 4-(6-(3-Fluoro-5-methoxyphenyl)imidazo[1,2-a]pyridin-3-yl)-N-(6-(4-methylpiperazin-1-yl)pyridin-3-yl)pyrimidin-2-amine] | 57 | 66 | 2 | 90 | 38 | 6 | 26 | – | – | –
CN(C)c1ccc(Nc2nccc(-c3cnc4ccc(C5=CCNCC5)cn34)n2)cn1 [Compound 69, N^2,N^2-Dimethyl-N^5-(4-(6-(1,2,3,6-tetrahydropyridin-4-yl)imidazo[1,2-a]pyridin-3-yl)pyrimidin-2-yl)pyridine-2,5-diamine] | – | 81 | 152 | – | 65 | – | 16 | 116 | 82 | 30
CS(=O)(=O)N1CCN(c2ccc(Nc3nccc(-c4cnc5ccc(-c6ccc(F)nc6)cn45)n3)cn2)CC1 [Compound 56, 4-(6-(6-Fluoropyridin-3-yl)imidazo[1,2-a]pyridin-3-yl)-N-(6-(4-(methylsulfonyl)piperazin-1-yl)pyridin-3-yl)pyrimidin-2-amine] | 78 | 96 | 23 | 36 | 94 | 84 | 380 | – | – | –
CN(C)c1ccc(Nc2nccc(-c3cnc4ccc(-c5ccccc5)cn34)n2)cn1 [Compound 66, N^2,N^2-Dimethyl-N^5-(4-(6-phenylimidazo[1,2-a]pyridin-3-yl)pyrimidin-2-yl)pyridine-2,5-diamine] | 76 | 79 | 17 | 73 | 64 | 220 | 468 | – | – | –
CCS(=O)(=O)N1CCN(c2ccc(Nc3nccc(-c4cnc5ccc(-c6ccccc6)cn45)n3)cn2)CC1 [Compound 60, N-(6-(4-(Ethylsulfonyl)piperazin-1-yl)pyridin-3-yl)-4-(6-phenylimidazo[1,2-a]pyridin-3-yl)pyrimidin-2-amine] | 61 | 100 | 20 | 91 | 100 | 142 | 509 | – | – | –
O=C1NCCC12CCN(c1ccc(Nc3nccc(-c4cnc5ccc(Br)cn45)n3)cn1)CC2 [Compound 71, 8-(5-((4-(6-Bromoimidazo[1,2-a]pyridin-3-yl)pyrimidin-2-yl)amino)pyridin-2-yl)-2,8-diazaspiro[4.5]decan-1-one] | 95 | 97 | 12 | 74 | 91 | 24 | > 500 | – | – | –
O=C(c1ccco1)N1CCN(c2ccc(Nc3nccc(-c4cnc5ccc(Br)cn45)n3)cn2)CC1 [Compound 62, (4-(5-((4-(6-Bromoimidazo[1,2-a]pyridin-3-yl)pyrimidin-2-yl)amino)pyridin-2-yl)piperazin-1-yl)(furan-2-yl)methanone] | 39 | 76 | 52 | 57 | 60 | 188 | 541 | – | – | –
Brc1ccc2ncc(-c3ccnc(Nc4ccc(NC5CCOCC5)nc4)n3)n2c1 [Compound 57, N^5-(4-(6-Bromoimidazo[1,2-a]pyridin-3-yl)pyrimidin-2-yl)-N^2-(tetrahydro-2H-pyran-4-yl)pyridine-2,5-diamine] | 57 | 93 | 30 | – | 88 | 40 | 103 | – | 56 | –
CN(C)c1ccc(Nc2nccc(-c3cnc4ccc(C5=CCN(C(=O)OC(C)(C)C)CC5)cn34)n2)cn1 [Compound 67, Tert-butyl 4-(3-(2-((6-(dimethylamino)pyridin-3-yl)amino)pyrimidin-4-yl)imidazo[1,2-a]pyridin-6-yl)-3,6-dihydropyridine-1(2H)-carboxylate] | 67 | 78 | 362 | 93 | 68 | > 500 | 1630 | – | – | –
CN1CCN(c2ccc(Nc3nccc(-c4cnc5ccc(-c6ccccc6)cn45)n3)nc2)CC1 [Comparator compound A, N-(5-(4-methylpiperazin-1-yl)pyridin-2-yl)-4-(6-phenylimidazo[1,2-a]pyridin-3-yl)pyrimidin-2-amine, reference compound] | 87 | – | – | 86 | 66 | – | 83 | – | – | –
CN(C)c1ccc(Nc2nccc(-c3cnc4ccc(-c5ccc(F)nc5)cn34)n2)cn1 [Compound 68, N^5-(4-(6-(6-Fluoropyridin-3-yl)imidazo[1,2-a]pyridin-3-yl)pyrimidin-2-yl)-N^2,N^2-dimethylpyridine-2,5-diamine] | 37 | 81 | 13 | 61 | 71 | 62 | 174 | – | – | –
CC(C)N1CCN(c2ccc(Nc3nccc(-c4cnc5ccc(-c6ccc(F)nc6)cn45)n3)cn2)CC1 [Compound 55, 4-(6-(6-Fluoropyridin-3-yl)imidazo[1,2-a]pyridin-3-yl)-N-(6-(4-isopropylpiperazin-1-yl)-pyridin-3-yl)pyrimidin-2-amine] | 50 | 55 | 116 | 62 | 38 | 28 | 36 | – | – | –
